Source: PubChem BioAssay (NCI)
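Dose response: 5 concentrations. Exposure: 48 h. Format: 96-well plates. Endpoint: linear interpolation; highest concentration if not reached. GI50 is the concentration that inhibits growth by half. At the TGI there is no net growth.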

Assays:
Test in all cases: NCI-60 cell line screen, 48 h
OVCAR-3 ovarian = test system: OVCAR-3 ovarian
SNB-19 CNS = test system: SNB-19 CNS
UO-31 renal = test system: UO-31 renal
SN12C renal = test system: SN12C renal
SR leukemia = test system: SR leukemia
OVCAR-5 ovarian = test system: OVCAR-5 ovarian
MDA-MB-435 = test system: MDA-MB-435
NCI/ADR-RES ovarian = test system: NCI/ADR-RES ovarian
M14 melanoma = test system: M14 melanoma
BT-549 breast = test system: BT-549 breast

| SMILES | TGI (OVCAR-3 ovarian) | TGI (SNB-19 CNS) | TGI (UO-31 renal) | TGI (SN12C renal) | TGI (SR leukemia) | TGI (OVCAR-5 ovarian) | TGI (MDA-MB-435) | TGI (NCI/ADR-RES ovarian) | TGI (M14 melanoma) | TGI (BT-549 breast) | GI50 (OVCAR-3 ovarian) | GI50 (UO-31 renal) | GI50 (NCI/ADR-RES ovarian) | GI50 (SN12C renal) | GI50 (M14 melanoma) | GI50 (SR leukemia) | GI50 (BT-549 breast) | GI50 (OVCAR-5 ovarian) | GI50 (MDA-MB-435) | GI50 (SNB-19 CNS) |
| --- | --- | --- | --- | --- | --- | --- | --- | --- | --- | --- | --- | --- | --- | --- | --- | --- | --- | --- | --- | --- |
| Clc1cc(Cl)cc(C2SCc3nc4ccccc4n32)c1 (centres undefined) | 38.3 µM | 66.9 µM | 43.5 µM | 29.9 µM | > 100 µM | 71.4 µM | – | – | – | – | – | – | – | – | – | – | – | – | – | – |
| N#Cc1c(N)n(C2OC(CO)C(O)C2O)c2ncnc(N)c12 (centres undefined) | 0.156 µM | > 84.2 µM | – | 0.856 µM | 0.0474 µM | 3.28 µM | 0.0891 µM | 0.137 µM | 0.265 µM | 2.13 µM | – | – | – | – | – | – | – | – | – | – |
| Clc1cc2nc[nH]c2cc1Cl | > 100 µM | > 100 µM | > 100 µM | > 100 µM | – | > 100 µM | – | – | > 100 µM | – | – | – | – | – | – | – | – | – | – | – |
| CCOC(=O)C1Nc2ccc([N+](=O)[O-])cc2[C@H]2OCC[C@@H]12 (some centres undefined) | > 100 µM | > 100 µM | – | > 100 µM | – | > 100 µM | – | – | > 100 µM | – | – | – | – | – | – | – | – | – | – | – |
| CCOC(=O)NC(=O)c1cn(CC(=O)NCC(=O)NCC(=O)N2CCN(CCn3c(C)nc(C(N)=O)c3N)CC2)c(=O)[nH]c1=O | – | > 100 µM | > 100 µM | > 100 µM | > 100 µM | – | – | – | > 100 µM | – | – | – | – | – | – | – | – | – | – | – |
| O=C1C2c3[nH]c4ccccc4c3C3CCC(c4ccccc4)CC3C2C(=O)N1c1ccccc1 (centres undefined) | > 100 µM | > 100 µM | > 100 µM | > 100 µM | > 100 µM | > 100 µM | – | – | > 100 µM | – | – | – | – | – | – | – | – | – | – | – |
| CC(C)(C)n1nc(C2CC2)cc1NC(=O)Nc1ccc(Cl)cc1 | > 100 µM | > 100 µM | > 100 µM | > 100 µM | – | > 100 µM | > 100 µM | > 100 µM | > 100 µM | > 100 µM | – | – | – | – | – | – | – | – | – | – |
| Nc1nc(=O)c2[nH]cnc2n1O | > 100 µM | > 100 µM | > 100 µM | > 100 µM | > 100 µM | > 100 µM | – | > 100 µM | > 100 µM | > 100 µM | – | – | – | – | – | – | – | – | – | – |
| CN(C)C(=O)C(NCCO)c1ccccc1 (centres undefined) | > 100 µM | > 100 µM | > 100 µM | > 100 µM | – | > 100 µM | > 100 µM | – | > 100 µM | > 100 µM | – | – | – | – | – | – | – | – | – | – |
| CCCCN1C(=O)C2c3[nH]c4ccccc4c3C3CCCCC3C2C1=O (mixture of isomers) | 28.9 µM | 64.2 µM | 47.5 µM | > 100 µM | – | – | – | – | 42.8 µM | – | – | – | – | – | – | – | – | – | – | – |
| OCC(O)C(O)C(O)c1nn[nH]n1 (centres undefined) | > 100 µM | – | > 100 µM | > 100 µM | > 100 µM | > 100 µM | – | – | > 100 µM | – | – | – | – | – | – | – | – | – | – | – |
| C=C(c1ccc(OC)c(/C=C/C(=O)c2cc(OC)c(OC)c(OC)c2)c1)c1cc(OC)c(OC)c(OC)c1 | 3.18 µM | – | 2.34 µM | 9.55 µM | 8.79 µM | 6.14 µM | – | 4.85 µM | 4.43 µM | 4.22 µM | 1.53 µM | 1.07 µM | 0.936 µM | 1.87 µM | 1.59 µM | 0.46 µM | 0.894 µM | 2.07 µM | – | – |
| C[C@]12CC/C(=N\O)C[C@@H]1CC[C@@H]1[C@@H]2CC[C@]2(C)/C(=N/O)CC[C@@H]12 | 59.1 µM | > 100 µM | 78.4 µM | > 100 µM | > 100 µM | > 100 µM | 70.8 µM | > 100 µM | 55.2 µM | – | 17.4 µM | 31.5 µM | 44.2 µM | 47.1 µM | 23.7 µM | 35 µM | – | 46.1 µM | 24.8 µM | 79.5 µM |
| C[C@]12CC[C@H](OC(=O)Cc3ccc(N(CCCl)CCCl)cc3)CC1CC[C@@H]1C2CC[C@]2(C)NC(=O)CCC12 (some centres undefined) | 14.8 µM | > 100 µM | > 100 µM | 18.6 µM | – | – | – | – | 28.8 µM | – | – | – | – | – | – | – | – | – | – | – |
| Cc1ccc2oc(=O)cc(CC(=O)O)c2c1 | > 100 µM | > 100 µM | – | > 100 µM | – | > 100 µM | – | – | > 100 µM | – | – | – | – | – | – | – | – | – | – | – |
| N=C(N)c1ccc(CS(=O)(=O)F)cc1 | > 100 µM | > 100 µM | > 100 µM | > 100 µM | – | > 100 µM | > 100 µM | > 100 µM | > 100 µM | > 100 µM | > 100 µM | > 100 µM | > 100 µM | > 100 µM | > 100 µM | – | > 100 µM | > 100 µM | > 100 µM | > 100 µM |
| [O-]c1ccccc1[C-]=Nc1ccccc1O.[O-]c1ccccc1[C-]=Nc1ccccc1O.[O]=[U]=[O] | 29.5 µM | – | – | 35.4 µM | – | > 100 µM | – | – | 41.7 µM | – | 4.13 µM | – | – | 10 µM | 10.2 µM | – | – | 21 µM | – | – |
| CC(C)(C)c1cc(O)c2c(c1O)C(=O)CCC2 | 76.5 µM | > 100 µM | – | > 100 µM | – | – | – | – | > 100 µM | – | – | – | – | – | – | – | – | – | – | – |
| CCCCCCN(CCCCCC)C1=CC(=O)C(=O)c2ccccc21 | 14 µM | 29.6 µM | 26.2 µM | 30.3 µM | 63.3 µM | 33.2 µM | – | – | 32.4 µM | – | – | – | – | – | – | – | – | – | – | – |
| CN1CCN2c3ccccc3CC(C#N)(C#N)C2C1 (centres undefined) | > 100 µM | > 100 µM | > 100 µM | > 100 µM | – | > 100 µM | – | – | > 100 µM | – | – | – | – | – | – | – | – | – | – | – |
| CC[C@@]1(O)C(=O)OCc2c1cc1n(c2=O)Cc2cc3c([N+](=O)[O-])c(O)ccc3nc2-1 | 8.26 µM | > 27.8 µM | 2.3 µM | 4.77 µM | < 0.0215 µM | 11.6 µM | – | – | 2.47 µM | – | 1.6 µM | 0.303 µM | – | 0.057 µM | 0.188 µM | – | – | 0.879 µM | – | 0.0661 µM |
| CN1C(=O)C(C)(C)NS1(=O)=O | > 100 µM | > 100 µM | > 100 µM | > 100 µM | – | > 100 µM | – | – | > 100 µM | – | – | – | – | – | – | – | – | – | – | – |
| CN(Cc1ccccc1)c1ncnc2ccc(Br)cc12 | 20.8 µM | 41.9 µM | 49.5 µM | 29.6 µM | 38 µM | 31.3 µM | 16.6 µM | 33.3 µM | 25.7 µM | – | 7.45 µM | 13.3 µM | 8.94 µM | 15.1 µM | 12.9 µM | 16.5 µM | – | 15.3 µM | 4.67 µM | 16.8 µM |
